Reference: PubChem BioAssay AID816 (SRMLSC, 2007)
The source made the active and inactive calls. No rule for the calls is given here.

Tested on: S. cerevisiae GAL1 promoter reporter activation counterscreen
Test: GAL1 promoter activators in yeast, artefact control for yeast lifespan extension project, S. cerevisiae (AID 816);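 also: yeast growth read after 24 h of incubation with compounds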

Row | Structure (SMILES) | EC50
1 | O=C(Nc1ccc(S(=O)(=O)N2CCc3ccccc3C2)cc1)c1ccccc1 | > 40 µM (inactive)
2 | COc1ccc(C(CNC(=O)c2cccc(Br)c2)N2CCCC2)cc1 (configuration not stated) | > 40 µM (inactive)
3 | O=C(Nc1scc(-c2cccs2)c1C(=O)O)c1cccs1 | > 40 µM (inactive)
4 | O=C(Nc1ccc(Br)cn1)c1cccc(-c2cc3ccccc3oc2=O)c1 | > 40 µM (inactive)
5 | CN(C)c1ccc(S(=O)(=O)c2ccc(Cl)cc2)cc1 | > 40 µM (inactive)
6 | O=C1C(Cl)=C(Nc2ccccc2O)C(=O)N1CCc1ccccc1 | > 40 µM (inactive)
7 | CCCCNC(=O)/C(C#N)=C/c1cccnc1 | > 40 µM (inactive)
8 | COc1cc(C(C[N+](=O)[O-])c2c(-c3ccccc3)cc3ccccn23)cc(OC)c1OC (configuration not stated) | > 40 µM (inactive)
9 | CCCC(=O)Nc1ccccc1Sc1ncnc2scc(-c3ccccc3)c12 | > 40 µM (inactive)
10 | CCOc1cc(/C=C\[N+](=O)[O-])ccc1OCC(=O)Nc1ccccc1C | > 40 µM (inactive)
11 | O=C(NCc1ccco1)c1c(O)c2cccc3c2n(c1=O)CCC3 | > 40 µM (inactive)
12 | O=c1[nH]c2ccccc2nc1C(Cl)c1ccccc1 (configuration not stated) | > 40 µM (inactive)
13 | Cc1ccc(/C(O)=C2\C(=O)C(=O)N(c3cc(C)on3)C2c2cccc(Cl)c2)cc1 (configuration not stated) | > 40 µM (inactive)
14 | CN1C(=O)NC(c2ccc(O)cc2)C(C(=O)c2cccs2)C1(O)C(F)(F)F (configuration not stated) | > 40 µM (inactive)
15 | Nc1cccc2c1C(=O)N(C(=O)c1ccc(Cl)c(S(=O)(=O)N3CCCCCC3)c1)C2=O | > 40 µM (inactive)
16 | C=CS(=O)(=O)c1ccc(Oc2ccc(S(=O)(=O)C=C)cc2)cc1 | > 40 µM (inactive)
17 | CCOC(=O)CCCNC(=O)COc1ccccc1C#N | > 40 µM (inactive)
18 | O=[N+]([O-])c1cc(S(=O)(=O)N2CCCCCC2)ccc1F | > 40 µM (inactive)
19 | Cc1c(NC(=O)C(=O)/C=C(\O)c2ccc(Cl)cc2)c(=O)n(-c2ccccc2)n1C | > 40 µM (inactive)
20 | O=S(=O)(Nc1cccc2c1CCCC2)c1ccc(Cl)cc1 | > 40 µM (inactive)
21 | COc1ccc(N(C(=O)C(C)C)S(=O)(=O)c2ccc(Cl)cc2)cc1 | > 40 µM (inactive)
22 | O=C1CC(c2ccccc2)CC(O)=C1C=NCCN1CCNCC1 (configuration not stated) | > 40 µM (inactive)
23 | Cc1ccc(N(C(=O)CS(=O)CC(=O)Nc2ccc(F)cc2)C(C(=O)NC2CCCCC2)c2ccco2)cc1 (configuration not stated) | > 40 µM (inactive)
24 | CCCCCC(=O)N1CCN(CCN=CC2=C(O)CC(c3ccc(OC)c(OC)c3)CC2=O)CC1 (configuration not stated) | > 40 µM (inactive)
25 | Cc1cc(C)cc(CC2CC(=O)N(c3ccc(Cl)cn3)C2=O)c1 (configuration not stated) | > 40 µM (inactive)

Row | Structure (SMILES) | EC50
26 | O=c1c2ccccc2nc(-c2cccc(Cl)c2)n1O | > 40 µM (inactive)
27 | CCCC(=Nc1ccc(N)cc1)C1=C(O)C(C(=O)OC)C(C)(C)CC1=O (configuration not stated) | > 40 µM (inactive)
28 | O=S1(=O)C=C(Sc2nc3ccccc3s2)c2ccccc21 | > 40 µM (inactive)
29 | Oc1ccc2ccccc2c1C=Nc1ccc(N2CCOCC2)cc1 | > 40 µM (inactive)
30 | COc1cc(/C=c2\sc3nc(-c4ccncc4)nn3c2=O)ccc1OC(C)=O | > 40 µM (inactive)
31 | O=C1ON=C(c2ccccc2)/C1=C/c1ccc(-c2ccccc2[N+](=O)[O-])o1 | > 40 µM (inactive)
32 | Cc1cc(NS(=O)(=O)c2ccc(CC(C)C)cc2)no1 | > 40 µM (inactive)
33 | O=C(c1c[nH]c(C(=O)C(Cl)(Cl)Cl)c1)c1ccccc1Cl | > 40 µM (inactive)
34 | Cc1cccc(N2C(=O)C(Oc3ccc(Cl)cc3Cl)C2C=O)c1C (configuration not stated) | > 40 µM (inactive)
35 | CC(=O)[C@H]1[C@H](c2cccc(Cl)c2)C(C#N)(C#N)[C@@H]2c3ccccc3C=CN21 | > 40 µM (inactive)
36 | CCCn1c(SCC(=O)c2ccc3c(c2)NC(=O)CO3)nc2ccccc21 | > 40 µM (inactive)
37 | CC(=O)N1CCN(CCN=CC2=C(O)CC(c3cccs3)CC2=O)CC1 (configuration not stated) | > 40 µM (inactive)
38 | CN(C)C=C1C(=O)N(C2CCCCC2)C(=O)N(C2CCCCC2)C1=O | > 40 µM (inactive)
39 | CN1CCC2(CC1)C(C#N)=C(N)NC(S)=C2C#N | > 40 µM (inactive)
40 | C/C=C/Cn1c(N2CCCCCC2)nc2c1c(=O)[nH]c(=O)n2C | > 40 µM (inactive)
41 | N#Cc1cc(C(=O)c2cc(F)ccc2O)cn(-c2nccs2)c1=O | > 40 µM (inactive)
42 | CN1C(=O)C(C(=O)Nc2ccccc2F)c2ccccc21 (configuration not stated) | > 40 µM (inactive)
43 | COc1ccccc1-c1c(C)oc2cc(OC(=O)c3ccco3)ccc2c1=O | > 40 µM (inactive)
44 | Cc1ccc(OCC(=O)c2c(O)c3ccccc3oc2=O)cc1C | > 40 µM (inactive)
45 | CCCCC(CC)Cn1c2nc3ccccc3nc2c2c(=N)oc(C)nc21 (configuration not stated) | > 40 µM (inactive)
46 | COC(=O)c1sc(S(=O)(=O)Nc2ccc(Br)cc2)c(C(=O)OC)c1C | > 40 µM (inactive)
47 | COC(=O)C(=O)/C=C(\O)c1ccc(C)cc1 | > 40 µM (inactive)
48 | Cc1cc(C)nc(SCc2cc(=O)c(OC(=O)c3ccc(Br)o3)co2)n1 | > 40 µM (inactive)
49 | O=C1c2ccccc2NC(c2cnc3ccccc3n2)N1O (configuration not stated) | > 40 µM (inactive)
50 | CCCCCOC(=O)CSc1nc2c(c(=O)[nH]c(=O)n2C)n1CCc1ccccc1 | > 40 µM (inactive)

Row | Structure (SMILES) | EC50
51 | CC1(C)Oc2ccccc2OC1(O)c1ccc2ccccc2n1 (configuration not stated) | > 40 µM (inactive)
52 | O=C1c2ccccc2C(=O)N1Cc1nc2ccccc2c(=O)n1-c1ccc(Br)cn1 | > 40 µM (inactive)
53 | O=c1cc(O)c2c(=O)n(-c3ccccc3)c3c(c2o1)CCCCCC3 | > 40 µM (inactive)
54 | O=C1/C(=N/n2cnnc2)c2ccccc2N1Cc1ccccc1 | > 40 µM (inactive)
55 | COCCCNC(CC(=O)Nc1ccc(OC)cc1OC)C(=O)O (configuration not stated) | > 40 µM (inactive)
56 | O=C(O)c1ccc(O)c(N2C(=O)Nc3ccccc3N2O)c1 | > 40 µM (inactive)
57 | Cc1c(NC(=O)C(=O)/C=C(/O)c2ccccc2)c(=O)n(-c2ccccc2)n1C | > 40 µM (inactive)
58 | O=C(Oc1ccc2c(c1)OCO2)C12CC3CC(CC(C3)C1)C2 | > 40 µM (inactive)
59 | Cc1ccc(-c2ccc(/C=C3\C(=O)ON=C3c3ccccc3)o2)c([N+](=O)[O-])c1 | > 40 µM (inactive)
60 | CS(=O)(=O)c1nc(-c2ccccc2)cc(C(F)(F)F)n1 | > 40 µM (inactive)
61 | CCOc1ccc(C2=NNC(c3cccs3)=Nc3ccc(OCC)cc32)cc1 | > 40 µM (inactive)
62 | Cc1cc(C)c(NC(=O)/C(=C/c2ccccc2)c2ccccc2)c(C)c1 | > 40 µM (inactive)
63 | CC(C)C(OC(=O)CN1C(=O)COc2ccccc21)C(=O)NC1CCCC1 (configuration not stated) | > 40 µM (inactive)
64 | CCCN1C(=O)/C(=C/c2ccncc2)SC1=S | > 40 µM (inactive)
65 | CCCC(=O)C1C(=O)CC(CC(C)SCC)CC1=O (configuration not stated) | > 40 µM (inactive)
66 | N=c1c2c(-c3ccccc3)c(-c3ccccc3)n(Cc3ccco3)c2ncn1CCCn1ccnc1 | > 40 µM (inactive)
67 | CC1(C)CC(=O)C2=C(C1)OC1=C(C(=O)CC(C)(C)C1)C2c1ccc(O)cc1O | > 40 µM (inactive)
68 | CC1=CN2C(=N)/C(=C/c3ccc([N+](=O)[O-])o3)C(=O)N=C2S1 | > 40 µM (inactive)
69 | CCn1ccc(C(=O)Nc2ccc(S(=O)(=O)Nc3ccccc3OC)cc2)n1 | > 40 µM (inactive)
70 | CCn1ncc(/C=N/NC(=O)c2ccc3c(c2)OCO3)c1C | > 40 µM (inactive)
71 | COc1ccc(OC)c(C2C(C(C)=O)=C(O)C(=O)N2Cc2cccnc2)c1 (configuration not stated) | > 40 µM (inactive)
72 | O=C(Oc1ccc([N+](=O)[O-])cc1)c1ccc2ccccc2n1 | > 40 µM (inactive)
73 | Cc1ccc(-c2nc3ccc(Cl)cc3n2OC(=O)N(C)C)cc1 | > 40 µM (inactive)
74 | Cc1ccc(C(C2=C(O)CC(C)(C)CC2=O)C2C(=O)CC(C)(C)CC2=O)o1 (configuration not stated) | > 40 µM (inactive)
75 | Cc1cc(C)nc(SCc2cc(=O)c(OC(=O)c3ccco3)co2)n1 | > 40 µM (inactive)

Row | Structure (SMILES) | EC50
76 | Cc1[nH]nc2nc3c(c(OC(=O)c4ccccc4)c12)c(=O)n(C)c(=O)n3C | > 40 µM (inactive)
77 | CCOC(=O)c1cnc(-c2ccccc2)nc1Oc1ccc(Cl)cc1 | > 40 µM (inactive)
78 | C=C(CC)C(=O)c1ccc(OCC(=O)O)c(Cl)c1Cl | > 40 µM (inactive)
79 | COc1ccc(/C=C(\C#N)C(=O)N2CCOCC2)cc1Br | > 40 µM (inactive)
80 | O=C(c1cnn2c(C(F)F)cc(C3CC3)nc12)N1CCCC1 | > 40 µM (inactive)
81 | COC(=O)c1sc2ncn(-n3c(C)ccc3C)c(=O)c2c1C | > 40 µM (inactive)
82 | Cc1nc(SC(C)C)[nH]c(=O)c1Cc1ccccc1 | > 40 µM (inactive)
83 | COc1ccc(CN2CCN(C(=O)COc3cccc(C)c3)CC2)c(OC)c1 | > 40 µM (inactive)
84 | CN(C)/C=C(/C(=O)c1ccc(Cl)cc1Cl)S(=O)(=O)c1ccc(Cl)cc1 | > 40 µM (inactive)
85 | COc1ccc(CCN2C(=O)C(O)=C(C(=O)c3ccco3)C2c2cccs2)cc1OC (configuration not stated) | > 40 µM (inactive)
86 | CN1CCN(C(=S)Nc2cc([N+](=O)[O-])ccc2Cl)CC1 | > 40 µM (inactive)
87 | COc1ccc(-c2cc(C(F)(F)F)nc(S(C)(=O)=O)n2)cc1OC | > 40 µM (inactive)
88 | Cc1ccc(C(=O)c2no[n+]([O-])c2C(=O)c2ccc(C)cc2)cc1 | > 40 µM (inactive)
89 | CCCCn1c(NS(=O)(=O)c2ccc(C)cc2)c(C(=O)OCC)c2nc3ccccc3nc21 | > 40 µM (inactive)
90 | Cc1cc(C(=O)CN2C(=O)NC(C)(CC(C)C)C2=O)c(C)n1-c1ccc2c(c1)OCO2 (configuration not stated) | > 40 µM (inactive)
91 | CNC(=O)/C(C#N)=C/c1c(F)cccc1Cl | > 40 µM (inactive)
92 | CCCC(=Nc1ccccc1)C1=C(O)C(C(=O)OC)C(C)(C)CC1=O (configuration not stated) | > 40 µM (inactive)
93 | C[C@]12CC[C@@H](O)C[C@@H]1CC[C@@H]1[C@@H]2CC[C@]2(C)[C@@H](O)CC[C@@H]12 | > 40 µM (inactive)
94 | COc1cc(OC)cc(-c2nc3ccccc3c(=O)n2OC(=O)c2ccccc2C)c1 | > 40 µM (inactive)
95 | O=C(/C=C/c1ccccc1)Nc1ncn[nH]1 | > 40 µM (inactive)
96 | CCC(=NCCc1c(C)[nH]c2ccc(C)cc12)C1=C(O)CC(c2ccccc2)CC1=O (configuration not stated) | > 40 µM (inactive)
97 | N#CSCC(=O)N1c2ccccc2CCc2ccccc21 | > 40 µM (inactive)
